Assay results taken from paper PMC11878344 (Angewandte Chemie (International Ed. in English), 2025).

Key:
[1] = test system: primary hippocampal neurons; assay: Confocal imaging of live primary hippocampal neuron cultures; format: cell-based, mouse; conditions: inhibitor 10 μM, 2 h before labeling; p <0.01
Experimental: MAGL plays a vital role in neuronal inflammation[24, 66, 67] and the integrity of the blood–brain barrier.[68, 69] Therefore, we investigated the imaging capability of the probes in live dissociated primary hippocampal neuron cultures (Figure 6 C) as a prime model system in CNS research, particularly in the context of its role in shaping neurotransmitter release and synaptic plasticity properties.[70] Confocal microscopic imaging of the live cultures, at day 14–21 in vitro, was performed on cells treated with probe 9 (1 μM) and the particularly bright silicon‐rhodamine (SiR) probes 10 and 12 (0.5 μM) at 37 °C for 15 min, all of them producing a strong fluorescent signal. […] We observed an accumulation of the fluorescent signal in neuronal varicosities with a distribution that is reminiscent of that of synapses, indicating the localization of MAGL.
Hippocampal Neurons Staining
Preparation of primary neuron cultures. For neuron culture, glass coverslips (19 mm, #1.5
Epredia Deckgläser, CB00190RAC20MNZ0) were coated with PLL (Sigma-Aldrich, P4707; 1:12
dilution) in phosphate-buffered saline (PBS) for 2h at 37 °C. Hippocampal neurons were then […]
microscope for a maximum of 30 min. Images were then analyzed using FIJI. […]
analysis. The protein was analyzed using a Waters H-class instrument equipped with a quaternary […]

[2] = test system: MAGL; parameters: method as in PMID 35089028, PMID 34764251, PMID 34328319, PMID 29498843; conditions: known MAGL ligands of Figure 1; cited from earlier work
[3] = test system: HT-29 cells; assay: Confocal live cell imaging of HT-29 cells; format: cell-based; conditions: inhibitor 10 μM; probe 9 0.15 μM
Excerpt: The enzymatic activity of MAGL plays a critical role in cancer lipid metabolism and is overexpressed in several particularly aggressive cancer cell lines.[56] Therefore, the expression levels of MAGL are considered a prognostic biomarker for the degree of cancer tumor differentiation and progression.[57] Here the colon cancer HT‐29 cell line is one of the prototypical systems regarding the impact of MAGL in proliferating and invasive cancer.[45, 58, 59] We studied the ability of probes 8–12 to detect MAGL by confocal imaging microscopy (Figure 6 A). Consistent staining of MAGL could be achieved with all optimized probes 8–12 carrying NBD, BODIPY, and SiR, respectively, providing a bright and stable fluorescent signal in live cancer cells. […]
For ABPP experiments, cell lysates containing equal amounts of protein were incubated with the appropriate concentration of activity-based probe for 30 min at room temperature. […] Samples were then separated by SDS-PAGE and bands were detected ChemiDoc Imager (Bio-Rad Laboratories). […] Gels were imaged and protein bands were quantified using Image Lab software (Bio-Rad Laboratories).
Fluorescence confocal microscopy. […]
Confocal live cell image acquisition. […] The probe fluorescence was monitored by kinetic measurements of 10 min with a break for probe administration. The fluorescence of one image per sample was captured at each time point. […]

In the case of O=C(OC(CO)C(F)(F)F)N1CC2C(C1)C2c1ccn(-c2ccc(F)cc2)n1 (stereo not drawn) [PF-06795071], the “Effect of pre-incubation on MAGL probe labeling” value [1] is listed as “strong decrease in mean fluorescent intensity”, the IC50 [2] is listed as 3 nM and the “Effect of pre-incubation on probe 9 fluorescent signal” value [3] is listed as “completely suppressed the fluorescent signal”.
